Target: T1, catechol-O-methyltransferase (COMT) (Homo sapiens, UniProt P21964)
T1 construct: M51A variant) was expressed in HEK 293F cells
T1 sequence (P21964 52-271 limits assumed): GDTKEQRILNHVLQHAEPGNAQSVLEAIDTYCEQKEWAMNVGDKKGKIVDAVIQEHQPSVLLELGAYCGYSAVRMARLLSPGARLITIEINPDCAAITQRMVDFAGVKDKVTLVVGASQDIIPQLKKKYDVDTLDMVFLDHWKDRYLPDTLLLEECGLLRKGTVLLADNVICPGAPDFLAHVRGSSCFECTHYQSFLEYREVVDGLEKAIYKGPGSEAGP
Assay: COMT inhibition assay (HTRF, production of S-adenosyl homocysteine)
Format: biochemical
Conditions: recombinant human COMT, HTRF SAH production; MB-COMT or S-COMT not stated for Table 1
Procedure: The ability of compounds to inhibit the activity of catechol-O-methyltransferase (COMT) was determined by a homogenous time-resolved fluorescent (HTRF) assay (Lina et al, 2012; kit from CisBio, Codolet, France). This assay measures the production of S-adenosyl homocysteine (SAH) from the methyl donor S-adenosyl methionine. Recombinant human membrane bound COMT (MB-COMT; M51A variant) was expressed in HEK 293F cells using 293Fectin (Life Technologies, Gent, Belgium) and membranes prepared. The membranes were re-suspended in buffer (20 mM Tris/HCl pH 7; 10 mM glycerol; 2 mM MgCl2; 10 mM NaCl), aliquoted and stored at −80° C. Recombinant human soluble COMT(S-COMT), Va1158 variant and a hexa-His tag on the N-terminus, was purified using Ni-NTA chromatography, the His tag removed and stored in buffer as above.
For the human MB-COMT assay, membranes (62 ng/well) were incubated with SAM (20 μM final, CisBio) and dopamine (1.5 μM final; Sigma H8502, Diegem, Belgium) in the presence or absence of varying concentrations (typically 10 concentrations ranging from 10 μM to 0.1 nM) of compound for 40 min at 37° C. in 384-well microtitre plates (10 μl per well final volume). The reaction was terminated by the addition of acylation buffer and the amount of SAH produced determined according to manufacturer's instructions. Specific inhibition as that inhibited by a high concentration of tolcapone (10 μM; synthesised at UCB) and all experiments were validated using a control curve to tolcapone.
The human S-COMT assay was performed as above except that 0.15 ng enzyme/well was incubated with SAM (20 μM final) and dopamine (100 μM final) for 15 min at 37° C. and SAH production determined.
HTRF readings were performed using a Perkin Elmer Envision and results expressed as concentration of SAH produced using a standard curve. Results were analysed using non-linear regression to the 4-parameter logistic equation and pIC50 (−log 10 concentration of drug which inhibits enzyme activity/SAH production by 50%) determined.

**Q.** `O=S(=O)(c1ccc(O)c2ncccc12)N1CCN(c2ccccc2)CC1` [Example 41, 5-(4-phenylpiperazin-1-yl)sulfonylquinolin-8-ol] was tested. Which “Activity range (pIC50, COMT inhibition)” value did it give?
**A.** Its value is “++ (a pIC50 of from about great than 6 to 7)”.

**Q.** Which “Activity range (pIC50, COMT inhibition)” value does the source give for `O=S(=O)(c1ccc(Cl)c(Cl)c1)c1ccc(O)c2ncccc12` [Example 15, 5-(3,4-dichlorophenyl)sulfonylquinolin-8-ol] here?
**A.** Its value is “++ (a pIC50 of from about great than 6 to 7)”.

**Q.** Which “Activity range (pIC50, COMT inhibition)” value does the source give for `Cc1cc(S(=O)(=O)N2CCN(Cc3ccc(F)cc3)CC2)c2cccnc2c1O` [Example 114, 5-[4-[(4-fluorophenyl)methyl]piperazin-1-yl]sulfonyl-7-methyl-quinolin-8-ol] here?
**A.** Its value is “+ (a pIC50 of from about 4.5 to 6)”.

**Q.** How did the “Activity range (pIC50, COMT inhibition)” value turn out when `CN(CCc1ccccc1)S(=O)(=O)c1ccc(O)c2ncccc12` [Example 48, 8-hydroxy-N-methyl-N-phenethyl-quinoline-5-sulfonamide] was run?
**A.** Its value is “+++ (a pIC50 of above about 7)”.

**Q.** For `Cc1ccc(S(=O)(=O)c2cc(I)c(O)c3ncccc23)cc1` [Example 107, 7-iodo-5-(p-tolylsulfonyl)quinolin-8-ol], which “Activity range (pIC50, COMT inhibition)” value is on record?
**A.** Its value is “++ (a pIC50 of from about great than 6 to 7)”.

**Q.** For `O=S(=O)(c1cc(Br)c(O)c2ncccc12)N1CCN(Cc2ccc(F)cc2)CC1` [Example 121, 7-bromo-5-[4-[(4-fluorophenyl)methyl]piperazin-1-yl]sulfonyl-quinolin-8-ol], which “Activity range (pIC50, COMT inhibition)” value is on record?
**A.** The value was “+ (a pIC50 of from about 4.5 to 6)”.

**Q.** How did the “Activity range (pIC50, COMT inhibition)” value turn out when `O=S(=O)(c1ccc(O)c2ncccc12)N1CCC(Cc2ccccc2)CC1` [Example 84, 5-[(4-benzyl-1-piperidyl)sulfonyl]quinolin-8-ol] was run?
**A.** The value was “+++ (a pIC50 of above about 7)”.

**Q.** Which “Activity range (pIC50, COMT inhibition)” value does the source give for `Cc1ccc(S(=O)(=O)c2cc(F)c(O)c3ncccc23)cc1` [Example 110, 7-fluoro-5-(p-tolylsulfonyl)quinolin-8-ol] here?
**A.** The value was “+++ (a pIC50 of above about 7)”.

**Q.** With `Cc1cc(C)cc(S(=O)(=O)c2ccc(O)c3ncccc23)c1` [Example 4, 5-(3,5-dimethylphenyl)sulfonylquinolin-8-ol] as the compound, how does the “Activity range (pIC50, COMT inhibition)” value read?
**A.** The value was “+++ (a pIC50 of above about 7)”.

**Q.** With `CN(Cc1ccccc1)S(=O)(=O)c1ccc(O)c2ncccc12` [Example 45, N-benzyl-8-hydroxy-N-methylquinoline-5-sulfonamide] as the compound, how does the “Activity range (pIC50, COMT inhibition)” value read?
**A.** The value was “+++ (a pIC50 of above about 7)”.

**Q.** `Cc1cccc(N2CCN(S(=O)(=O)c3ccc(O)c4ncccc34)CC2)c1C` [Example 100, 5-[4-(2,3-dimethylphenyl)piperazin-1-yl]sulfonylquinolin-8-ol] was tested. Which “Activity range (pIC50, COMT inhibition)” value did it give?
**A.** The value was “++ (a pIC50 of from about great than 6 to 7)”.

**Q.** Which “Activity range (pIC50, COMT inhibition)” value does the source give for `O=S(=O)(c1ccncc1)c1ccc(O)c2ncccc12` [Example 17, 5-(4-pyridylsulfonyl)quinolin-8-ol] here?
**A.** The value was “++ (a pIC50 of from about great than 6 to 7)”.

**Q.** Which “Activity range (pIC50, COMT inhibition)” value does the source give for `O=S(=O)(c1ccc(O)c2ncccc12)N1CCCC1Cc1ccccc1` (centres unmarked) [Example 75, 5-(2-benzylpyrrolidin-1-yl)sulfonylquinolin-8-ol] here?
**A.** The value was “+++ (a pIC50 of above about 7)”.

**Q.** For `CC(C)C1CCCN1S(=O)(=O)c1ccc(O)c2ncccc12` (centres unmarked) [Example 78, 5-(2-isopropylpyrrolidin-1-yl)sulfonylquinolin-8-ol], which “Activity range (pIC50, COMT inhibition)” value is on record?
**A.** The value was “+++ (a pIC50 of above about 7)”.

**Q.** Which “Activity range (pIC50, COMT inhibition)” value does the source give for `CC1CN(C(=O)OC(C)(C)C)CCN1S(=O)(=O)c1ccc(O)c2ncccc12` (centres unmarked) [Example 105, tert-butyl 4-[(8-hydroxy-5-quinolyl)sulfonyl]-3-methyl-piperazine-1-carboxylate] here?
**A.** The value was “++ (a pIC50 of from about great than 6 to 7)”.

**Q.** How did the “Activity range (pIC50, COMT inhibition)” value turn out when `C[C@@H](c1ccccc1)N(C)S(=O)(=O)c1ccc(O)c2ncccc12` [Example 51, 8-hydroxy-N-methyl-N-[(1S)-1-phenylethyl]quinoline-5-sulfonamide] was run?
**A.** Its value is “+++ (a pIC50 of above about 7)”.

**Q.** How did the “Activity range (pIC50, COMT inhibition)” value turn out when `Cc1ccc(S(=O)(=O)c2ccc(O)c3ncccc23)cc1` [Example 1, 5-tosylquinolin-8-ol] was run?
**A.** The value was “+++ (a pIC50 of above about 7)”.

**Q.** Which “Activity range (pIC50, COMT inhibition)” value does the source give for `O=S(=O)(c1cccc(Cl)c1)c1ccc(O)c2ncccc12` [Example 14, 5-(3-chlorophenyl)sulfonylquinolin-8-ol] here?
**A.** Its value is “+++ (a pIC50 of above about 7)”.

**Q.** `O=S(=O)(c1ccc(O)c2ncccc12)C1CCNCC1` [Example 34, 5-(4-piperidylsulfonyl)quinolin-8-ol] was tested. Which “Activity range (pIC50, COMT inhibition)” value did it give?
**A.** The value was “++ (a pIC50 of from about great than 6 to 7)”.

**Q.** `O=S(=O)(c1ccc(O)c2ncccc12)N1CCCC1c1ccccc1C(F)(F)F` (centres unmarked) [Example 81, 5-[2-[2-(trifluoromethyl)phenyl]pyrrolidin-1-yl]sulfonylquinolin-8-ol] was tested. Which “Activity range (pIC50, COMT inhibition)” value did it give?
**A.** Its value is “++ (a pIC50 of from about great than 6 to 7)”.

**Q.** How did the “Activity range (pIC50, COMT inhibition)” value turn out when `O=S(=O)(c1cc(Cl)c(O)c2ncccc12)N1CCN(Cc2ccc(F)cc2)CC1` [Example 112, 7-chloro-5-[4-[(4-fluorophenyl)methyl]piperazin-1-yl]sulfonyl-quinolin-8-ol] was run?
**A.** The value was “+ (a pIC50 of from about 4.5 to 6)”.

**Q.** For `O=S(=O)(c1ccc(O)c2ncccc12)N1CCC(O)(c2ccccc2)CC1` [Example 83, 5-[(4-hydroxy-4-phenyl-1-piperidyl)sulfonyl]quinolin-8-ol], which “Activity range (pIC50, COMT inhibition)” value is on record?
**A.** Its value is “+++ (a pIC50 of above about 7)”.

**Q.** `O=S(=O)(c1ccc(O)c2ncccc12)N1CCN(Cc2ccc(F)cc2)CC1` [Example 101, 5-[4-[(4-fluorophenyl)methyl]piperazin-1-yl]sulfonylquinolin-8-ol] was tested. Which “Activity range (pIC50, COMT inhibition)” value did it give?
**A.** The value was “+++ (a pIC50 of above about 7)”.

**Q.** How did the “Activity range (pIC50, COMT inhibition)” value turn out when `O=S(=O)(c1cc(Cl)cc(Cl)c1)c1ccc(O)c2ncccc12` [Example 8, 5-(3,5-dichlorophenyl)sulfonylquinolin-8-ol] was run?
**A.** Its value is “++ (a pIC50 of from about great than 6 to 7)”.

**Q.** For `O=C(c1ccccc1)C1CCN(S(=O)(=O)c2ccc(O)c3ncccc23)CC1` [Example 85, [1-[(8-hydroxy-5-quinolyl)sulfonyl]-4-piperidyl]-phenyl-methanone], which “Activity range (pIC50, COMT inhibition)” value is on record?
**A.** The value was “+++ (a pIC50 of above about 7)”.

**Q.** For `CCN(Cc1ccccc1)S(=O)(=O)c1ccc(O)c2ncccc12` [Example 56, N-benzyl-N-ethyl-8-hydroxy-quinoline-5-sulfonamide], which “Activity range (pIC50, COMT inhibition)” value is on record?
**A.** The value was “+++ (a pIC50 of above about 7)”.

**Q.** Which “Activity range (pIC50, COMT inhibition)” value does the source give for `CN(Cc1ccc2ccccc2c1)S(=O)(=O)c1ccc(O)c2ncccc12` [Example 55, 8-hydroxy-N-methyl-N-(2-naphthylmethyl)quinoline-5-sulfonamide] here?
**A.** Its value is “++ (a pIC50 of from about great than 6 to 7)”.

**Q.** With `COc1ccc(C2CCCN2S(=O)(=O)c2ccc(O)c3ncccc23)cc1` (centres unmarked) [Example 77, 5-[2-(4-methoxyphenyl)pyrrolidin-1-yl]sulfonylquinolin-8-ol] as the compound, how does the “Activity range (pIC50, COMT inhibition)” value read?
**A.** The value was “+++ (a pIC50 of above about 7)”.

**Q.** Which “Activity range (pIC50, COMT inhibition)” value does the source give for `Cc1cc(S(=O)(=O)N2C[C@@H](F)[C@H](F)C2)c2cccnc2c1O` [Example 116, 5-[(3R,4R)-3,4-difluoropyrrolidin-1-yl]sulfonyl-7-methyl-quinolin-8-ol] here?
**A.** Its value is “+ (a pIC50 of from about 4.5 to 6)”.

**Q.** How did the “Activity range (pIC50, COMT inhibition)” value turn out when `O=S(=O)(c1ccc(O)c2ncccc12)N1CCN(c2ccccc2-c2ccccc2)CC1` [Example 92, 5-[4-(2-phenylphenyl)piperazin-1-yl]sulfonylquinolin-8-ol] was run?
**A.** Its value is “++ (a pIC50 of from about great than 6 to 7)”.

**Q.** With `O=S(=O)(c1ccc(O)c2ncccc12)N1CCOCC1` [Example 64, 5-(4-morpholin-1-yl)sulfonylquinolin-8-ol] as the compound, how does the “Activity range (pIC50, COMT inhibition)” value read?
**A.** Its value is “++ (a pIC50 of from about great than 6 to 7)”.

**Q.** With `C[C@H](c1ccccc1)N(C)S(=O)(=O)c1ccc(O)c2ncccc12` [Example 50, 8-hydroxy-N-methyl-N-[(1R)-1-phenylethyl]quinoline-5-sulfonamide] as the compound, how does the “Activity range (pIC50, COMT inhibition)” value read?
**A.** Its value is “+++ (a pIC50 of above about 7)”.

**Q.** For `O=S(=O)(c1cccc(-c2ccccc2)c1)c1ccc(O)c2ncccc12` [Example 6, 5-(3-phenylphenyl)sulfonylquinolin-8-ol], which “Activity range (pIC50, COMT inhibition)” value is on record?
**A.** The value was “+++ (a pIC50 of above about 7)”.

**Q.** `Cc1cc(S(=O)(=O)N(C)[C@H](C)c2ccccc2)c2cccnc2c1O` [Example 115, 8-hydroxy-N,7-dimethyl-N-[(1R)-1-phenylethyl]quinoline-5-sulfonamide] was tested. Which “Activity range (pIC50, COMT inhibition)” value did it give?
**A.** The value was “++ (a pIC50 of from about great than 6 to 7)”.

**Q.** `Cc1ccc(S(=O)(=O)c2ccc(O)c3ncccc23)c(C)c1` [Example 10, 5-(2,4-dimethylphenyl)sulfonylquinolin-8-ol] was tested. Which “Activity range (pIC50, COMT inhibition)” value did it give?
**A.** Its value is “+++ (a pIC50 of above about 7)”.
